Experimental data from patent US20260263456A1, “TADALAFIL GASTRIC-SOLUBLE RAPID-RELEASE SOLID DISPERSION, TABLET, AND USE THEREOF” (Shenzhen Hanhui Pharmaceutical Technology Co., Ltd., priority 2023, published 2026).
≈ marks a conversion by molar mass, not a printed value.

Key:
[1] = Solubility of tadalafil API in various solvents; assay type: physicochemical; conditions: thermodynamic from solid, 25° C. and 60° C.
Excerpt: A suitable amount of tadalafil was weighed and dissolved in various commonly used organic solvents to identify the most appropriate solvents for establishing UV methodology. The solvents utilized for preparing solid dispersions, along with the solubility of tadalafil, the active pharmaceutical ingredient, in different solvents, are presented in Table 4 below.

[2] = Polymer and surfactant screening: solubility of solid dispersions in pH 1.0 and pH 6.8 media; assay type: physicochemical; conditions: API alone, 2 mg/mL, one value across 5 min and 30 min
Description: In this implementation example, a micro-scale rotary evaporation method was employed to screen various types of polymers and surfactants, specifically in the context of the active pharmaceutical ingredient (API) ratio of polymer to surfactant.
Acetone was utilized to prepare a stock solution of the active pharmaceutical ingredient at a concentration of 5 mg/mL, a polymer stock solution at 10 mg/mL, and a surfactant stock solution at 10 mg/mL. These solutions were evenly mixed in two identical portions, then centrifuged and dried to create the solid dispersion.
To each sample tube, 1 mL of pH 1.0 and pH 6.8 media was added, and the samples were vortexed at room temperature to ensure complete dispersion. Samples were collected at 5 minutes and 30 minutes, then centrifuged, diluted, and the absorbance was measured to calculate solubility.

solubility ([1]; organic solvent or mixture, Acetone): 10.2 to 16.9 mg/mL (≈ 26.1 to 43.5 mM) | solubility ([1]; organic solvent or mixture, Acetonitrile): 16 to 23.9 mg/mL (≈ 41 to 61.5 mM) | solubility ([1]; organic solvent or mixture, Anhydrous ethanol): < 10.8 mg/mL | solubility ([1]; organic solvent or mixture, Dichloromethane): < 10.8 mg/mL | solubility ([1]; organic solvent or mixture, Tetrahydrofuran): 23.8 to 47.6 mg/mL (≈ 61.2 to 122 mM) | solubility ([1]; pH 6.8 medium, aqueous buffer, pH 6.8): < 8.04 mg/mL | pH 1.0(Solubility mg/mL) ([2]; pH 1.0): 0.002 mg/mL | pH 6.8(Solubility mg/mL) ([2]; pH 6.8): 0.027 mg/mL
SMILES: CN1CC(=O)N2[C@H](c3ccc4c(c3)OCO4)c3[nH]c4ccccc4c3C[C@@H]2C1=O [Tadalafil]
